# Experiments:
# [1] = biological target: Prostaglandin G/H synthase 1 (Homo sapiens, UniProt P23219); assay: Inhibition of COX1 assessed as TBX2 production in human whole blood; type: functional, tissue-based
# [2] = biological target: T1, Prostaglandin G/H synthase 1 (Ovis aries, UniProt P05979)
# T1 sequence (P05979 whole entry): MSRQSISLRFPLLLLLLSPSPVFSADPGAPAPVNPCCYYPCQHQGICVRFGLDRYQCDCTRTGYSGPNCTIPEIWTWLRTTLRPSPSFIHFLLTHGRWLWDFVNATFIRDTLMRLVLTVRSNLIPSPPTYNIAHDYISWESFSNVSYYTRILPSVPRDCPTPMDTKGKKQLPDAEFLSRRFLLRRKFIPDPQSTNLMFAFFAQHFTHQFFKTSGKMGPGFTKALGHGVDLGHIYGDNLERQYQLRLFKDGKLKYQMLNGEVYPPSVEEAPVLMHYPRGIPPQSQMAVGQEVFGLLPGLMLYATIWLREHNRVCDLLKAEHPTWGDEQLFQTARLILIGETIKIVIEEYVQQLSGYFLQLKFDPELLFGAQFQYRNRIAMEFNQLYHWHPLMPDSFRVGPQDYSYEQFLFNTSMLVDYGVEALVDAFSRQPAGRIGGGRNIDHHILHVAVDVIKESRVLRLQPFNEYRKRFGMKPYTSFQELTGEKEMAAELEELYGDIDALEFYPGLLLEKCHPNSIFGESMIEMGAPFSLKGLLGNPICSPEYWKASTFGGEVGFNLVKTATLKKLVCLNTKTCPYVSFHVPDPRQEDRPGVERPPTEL
# Prostaglandin G/H synthase 1 (Homo sapiens, UniProt P23219), sequence (P23219 whole entry): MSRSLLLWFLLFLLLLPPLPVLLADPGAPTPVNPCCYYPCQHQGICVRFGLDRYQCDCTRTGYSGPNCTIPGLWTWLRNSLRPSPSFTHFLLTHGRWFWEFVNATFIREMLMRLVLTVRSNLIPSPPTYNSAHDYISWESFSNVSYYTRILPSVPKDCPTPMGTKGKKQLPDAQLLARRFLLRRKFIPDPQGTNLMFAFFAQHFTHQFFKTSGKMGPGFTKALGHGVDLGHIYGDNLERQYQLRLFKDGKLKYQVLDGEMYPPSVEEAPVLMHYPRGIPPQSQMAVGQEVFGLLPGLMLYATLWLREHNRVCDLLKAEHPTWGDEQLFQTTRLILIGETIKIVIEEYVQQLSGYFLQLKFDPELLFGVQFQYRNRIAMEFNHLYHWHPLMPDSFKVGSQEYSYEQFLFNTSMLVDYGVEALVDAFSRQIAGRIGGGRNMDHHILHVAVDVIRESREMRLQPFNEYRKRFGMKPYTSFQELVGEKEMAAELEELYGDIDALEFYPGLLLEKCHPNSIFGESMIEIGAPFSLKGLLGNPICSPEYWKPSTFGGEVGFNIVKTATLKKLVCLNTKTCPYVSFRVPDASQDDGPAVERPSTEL
smiles,measurement,setting,value
NS(=O)(=O)c1ccc(/N=N/c2ccc(OC(=O)Nc3ccccc3)c(OC(=O)Nc3ccccc3)c2)cc1,IC50,[1],35.1 µM
COc1ccc(/N=N/c2ccc(S(N)(=O)=O)cc2)cc1O,IC50,[1],66.4 µM
COc1ccc(/N=N/c2ccc(S(N)(=O)=O)cc2)cc1OC,IC50,[1],61.7 µM
same,IC50,[2],> 100 µM
Oc1ccc(/C=C/c2cc(O)cc(O)c2)cc1 [RESVERATROL],IC50,[2],0.38 µM
COc1cc(/N=N/c2ccc(S(N)(=O)=O)cc2)ccc1O,IC50,[1],> 100 µM
CSc1cc(N)ccc1/N=N/c1ccc(S(N)(=O)=O)cc1,IC50,[1],23.3 µM
same,IC50,[2],34.1 µM
NS(=O)(=O)c1ccc(/N=N/c2ccc(O)c(C(=O)O)c2)cc1 [SALAZOSULFAMIDE],IC50,[1],31.6 µM
same,IC50,[2],29.3 µM
COc1ccc(/N=N/c2ccc(S(N)(=O)=O)cc2)cc1,IC50,[1],> 100 µM
CC(C)c1ccc(NC(=O)Oc2ccc(/N=N/c3ccc(S(N)(=O)=O)cc3)cc2OC(=O)Nc2ccc(C(C)C)cc2)cc1,IC50,[1],26.3 µM
NS(=O)(=O)c1ccc(/N=N/c2ccc(O)c(Cl)c2)cc1,IC50,[1],33.3 µM
NS(=O)(=O)c1ccc(/N=N/c2ccc(O)cc2)cc1,IC50,[1],> 100 µM
NS(=O)(=O)c1ccc(/N=N/c2ccc(O)c(O)c2)cc1,IC50,[1],60 µM
CN(C)c1ccc(/N=N/c2ccc(S(N)(=O)=O)cc2)cc1,IC50,[1],> 100 µM

# Source: ChEMBL document CHEMBL1149501, “Selective COX-2 inhibitors. Part 1: synthesis and biological evaluation of phenylazobenzenesulfonamides” (Bioorg Med Chem Lett, 2006)
